Test results: ChEMBL document CHEMBL5442379, “ASAP - SARS-CoV-2 nsp3 macrodomain single point” (2024)

Target: Replicase polyprotein 1ab (Severe acute respiratory syndrome coronavirus 2) (UniProt P0DTD1)
[1] = Concentration 49.75 uM, Number of replicates 2.0, Standard deviation 0.064 %

Description: Functional biochemical assay to identify treatments for viral infectious disease that targets SARS-COV-2 nsp3 macrodomain, whereby the mechanism of action displaces an ADP-Ribose modified peptide from the binding site. Utilizing a time-resolved fluorescence method to measure binding by reading the emitted fluorescence intensity in two wavelengths.

With `O=C(Nc1ccccc1)Nc1ccc(C(=O)NC2c3cccc(O)c3CC2C(=O)O)cc1` (configuration not stated) the inhibition (Concentration 50.0 uM, Number of replicates 2.0, Standard deviation 0.256 %) was 99.9%.

Compound `O=C(c1ccc(O)nc1)N1CCC(c2ccn3ncc(C(=O)N4CCCCC4)c3c2)CC1` has an inhibition (Concentration 49.75 uM, Number of replicates 2.0, Standard deviation 5.093 %) of 11% and an inhibition (Concentration 99.5 uM, Number of replicates 2.0, Standard deviation 0.548 %) of 26.5%.

In the case of `FC(F)(F)c1nc(NC[C@H]2CCCO2)c2nc[nH]c2n1`, the inhibition (Concentration 50.0 uM, Number of replicates 2.0, Standard deviation 2.867 %) is reported as 2.5%.

Work on `O=C(O)c1ccc(C(=O)N2CCC(c3ccn4ncc(C(=O)N5CCCCC5)c4c3)CC2)o1` yielded an inhibition (Concentration 49.75 uM, Number of replicates 2.0, Standard deviation 3.483 %) of 40.5% and an inhibition (Concentration 99.5 uM, Number of replicates 2.0, Standard deviation 5.512 %) of 58.1%.

`COc1cc(Nc2ncnc3[nH]ccc23)ccc1NC(C)=O` showed an inhibition (Concentration 50.0 uM, Number of replicates 2.0, Standard deviation 12.002 %) of -7.76%.

With `FC(F)(F)CO[C@@H]1CCCN(c2ncnc3[nH]ccc23)C1` the inhibition (Concentration 50.0 uM, Number of replicates 2.0, Standard deviation 28.677 %) was 22.2%.

Compound `O=C(Nc1ccccc1)Nc1ccc(C(=O)N2CCOCC23CCC3)cc1` has an inhibition (Concentration 49.75 uM, Number of replicates 2.0, Standard deviation 0.885 %) of -5.18% and an inhibition (Concentration 99.5 uM, Number of replicates 2.0, Standard deviation 3.072 %) of -3.18%.

With `OCc1cn([C@@H]2CCCN(c3ncnc4[nH]ccc34)C2)nn1` the inhibition (Concentration 50.0 uM, Number of replicates 2.0, Standard deviation 2.708 %) was -0.682%.

With `O=S1(=O)CCC[C@@H](CNc2ncnc3n[nH]cc23)C1` the inhibition (Concentration 50.0 uM, Number of replicates 2.0, Standard deviation 5.989 %) was 4.59%.

Work on `O=C(c1cnc2[nH]ncc2c1)N1CCC(c2ccn3ncc(C(=O)N4CCCCC4)c3c2)CC1` yielded an inhibition (Concentration 49.75 uM, Number of replicates 2.0, Standard deviation 0.466 %) of 15.8% and an inhibition (Concentration 99.5 uM, Number of replicates 2.0, Standard deviation 6.369 %) of 34.4%.

For `CCN1CCN(C(=O)c2cnn3ccc(C4CCN(C(=O)c5ccccc5)CC4)cc23)CC1=O`, the inhibition (Concentration 49.75 uM, Number of replicates 2.0, Standard deviation 2.605 %) was -8.63% and the inhibition (Concentration 99.5 uM, Number of replicates 2.0, Standard deviation 4.496 %) was -3.46%.

In the case of `O=C(Nc1ccccc1)Nc1ccc(C(=O)Nc2cnnc(Cl)c2)cc1`, the inhibition (Concentration 49.75 uM, Number of replicates 2.0, Standard deviation 1.096 %) is reported as -1.72% and the inhibition (Concentration 99.5 uM, Number of replicates 2.0, Standard deviation 2.694 %) is reported as -0.19%.

For `OC[C@@H](Nc1ncnc2[nH]c(I)cc12)c1ccccc1`, the inhibition (Concentration 50.0 uM, Number of replicates 2.0, Standard deviation 1.35 %) was 26.1%.

`O=C(NCc1nc2cccnc2[nH]1)c1cnc2nc[nH]c(=O)c2c1` showed an inhibition (Concentration 50.0 uM, Number of replicates 2.0, Standard deviation 1.79 %) of -1.99% and an inhibition (Concentration 100.0 uM, Number of replicates 2.0, Standard deviation 3.352 %) of 7.03%.

`Cc1[nH]ncc1CN(C)C(=O)c1cnn2ccc(C3CCN(C(=O)c4ccccc4)CC3)cc12` gave an inhibition (Concentration 49.75 uM, Number of replicates 2.0, Standard deviation 5.917 %) of -1.14% and an inhibition (Concentration 99.5 uM, Number of replicates 2.0, Standard deviation 7.587 %) of 0.307%.

`Oc1cc(CNc2ncnc3[nH]cnc23)ccn1` was tested, and the inhibition (Concentration 50.0 uM, Number of replicates 2.0, Standard deviation 4.588 %) was -0.821% and the inhibition (Concentration 100.0 uM, Number of replicates 2.0, Standard deviation 5.781 %) was -3.73%.

Compound `O=C(c1cc(O)ccn1)N1CCC(c2ccn3ncc(C(=O)N4CCCCC4)c3c2)CC1` has an inhibition (Concentration 49.75 uM, Number of replicates 2.0, Standard deviation 1.167 %) of 17.6% and an inhibition (Concentration 99.5 uM, Number of replicates 2.0, Standard deviation 1.673 %) of 32.2%.

`Cc1nc(C(=O)N2CCC(c3ccn4ncc(C(=O)N5CCCCC5)c4c3)CC2)c(C)[nH]1` was tested, and the inhibition [1] was 16.8% and the inhibition (Concentration 99.5 uM, Number of replicates 2.0, Standard deviation 4.92 %) was 27.5%.

Compound `Cc1cc(N)ncc1C(=O)N1CCC(c2ccn3ncc(C(=O)N4CCCCC4)c3c2)CC1` has an inhibition (Concentration 49.75 uM, Number of replicates 2.0, Standard deviation 0.411 %) of 19.5% and an inhibition (Concentration 99.5 uM, Number of replicates 2.0, Standard deviation 3.667 %) of 32.6%.

For `Cc1nn(C)c(C)c1[C@H]1COCCN1c1ncnc2[nH]ccc12`, the inhibition (Concentration 49.75 uM, Number of replicates 2.0, Standard deviation 4.821 %) was -0.137% and the inhibition (Concentration 99.5 uM, Number of replicates 2.0, Standard deviation 1.988 %) was -0.128%.

With `c1ccc(-c2nc(CNc3cccnc3)cs2)nc1` the inhibition (Concentration 50.0 uM, Number of replicates 2.0, Standard deviation 0.432 %) was -9.87%.

With `O=C(N[C@@H]1CCCNC1=O)c1cnn2ccc(C3CCN(C(=O)c4ccccc4)CC3)cc12` the inhibition (Concentration 49.75 uM, Number of replicates 2.0, Standard deviation 2.776 %) was -3.16% and the inhibition (Concentration 99.5 uM, Number of replicates 2.0, Standard deviation 2.396 %) was -4.87%.

`O=C(O)c1cnc(C(=O)N2CCC(c3ccn4ncc(C(=O)N5CCCCC5)c4c3)CC2)cn1` showed an inhibition (Concentration 49.75 uM, Number of replicates 2.0, Standard deviation 0.482 %) of 27.5% and an inhibition (Concentration 99.5 uM, Number of replicates 2.0, Standard deviation 1.164 %) of 46.4%.

Work on `COC(=O)c1cc2c(Oc3ccccc3C#N)ncnc2[nH]1` yielded an inhibition (Concentration 50.0 uM, Number of replicates 2.0, Standard deviation 0.741 %) of 2.92%.

`NC(=O)[C@@H]1CCN(C(=O)c2cnc3[nH]c(=O)[nH]c(=O)c3c2)C1` showed an inhibition (Concentration 50.0 uM, Number of replicates 2.0, Standard deviation 2.086 %) of -6.32%.

In the case of `Cc1nccc(C(=O)N2CCC(c3ccn4ncc(C(=O)N5CCCCC5)c4c3)CC2)n1`, the inhibition (Concentration 49.75 uM, Number of replicates 2.0, Standard deviation 2.531 %) is reported as 16.5% and the inhibition (Concentration 99.5 uM, Number of replicates 2.0, Standard deviation 1.199 %) is reported as 27.4%.

With `c1nc(NCc2cnc3sccn23)c2[nH]cnc2n1` the inhibition (Concentration 50.0 uM, Number of replicates 2.0, Standard deviation 7.011 %) was -4.78% and the inhibition (Concentration 100.0 uM, Number of replicates 2.0, Standard deviation 4.457 %) was 5.65%.

Work on `CO[C@@H](CNc1ncnc2[nH]ccc12)c1cccc(Cl)c1` yielded an inhibition (Concentration 50.0 uM, Number of replicates 2.0, Standard deviation 2.381 %) of 4.1% and an inhibition (Concentration 100.0 uM, Number of replicates 2.0, Standard deviation 2.011 %) of 14.2%.

Work on `C=CCn1c(Cc2ccccc2)nnc1Sc1ncnc2[nH]ccc12` yielded an inhibition (Concentration 50.0 uM, Number of replicates 2.0, Standard deviation 4.634 %) of -7.71%.

Compound `Cn1nc(C(=O)N2CCC(c3ccn4ncc(C(=O)N5CCCCC5)c4c3)CC2)cc1C(=O)O` has an inhibition (Concentration 49.75 uM, Number of replicates 2.0, Standard deviation 1.938 %) of 42.7% and an inhibition (Concentration 99.5 uM, Number of replicates 2.0, Standard deviation 2.395 %) of 59.7%.

Work on `O=C(Cc1n[nH]c2c1CCCC2)Nc1cnc2[nH]ncc2c1` yielded an inhibition (Concentration 50.0 uM, Number of replicates 2.0, Standard deviation 2.447 %) of -1.26%.

In the case of `Cc1ncc(NCc2csc(-c3ccccn3)n2)cn1`, the inhibition (Concentration 49.75 uM, Number of replicates 2.0, Standard deviation 3.788 %) is reported as -5.23% and the inhibition (Concentration 99.5 uM, Number of replicates 2.0, Standard deviation 2.632 %) is reported as -4.49%.

`CC[C@@H]1C[C@@H](C(=O)Nc2ncnc3[nH]c(C)c(C)c23)CCO1` showed an inhibition (Concentration 50.0 uM, Number of replicates 2.0, Standard deviation 1.684 %) of 12.1%.

For `O=C(c1cc(O)ncn1)N1CCC(c2ccn3ncc(C(=O)N4CCCCC4)c3c2)CC1`, the inhibition (Concentration 49.75 uM, Number of replicates 2.0, Standard deviation 0.931 %) was 19.1% and the inhibition (Concentration 99.5 uM, Number of replicates 2.0, Standard deviation 1.95 %) was 30.9%.

`O=C1CCN(C(=O)c2cnn3ccc(C4CCN(C(=O)c5ccccc5)CC4)cc23)CCN1` was tested, and the inhibition [1] was -2.4% and the inhibition (Concentration 99.5 uM, Number of replicates 2.0, Standard deviation 5.989 %) was -7.81%.
